Measured values reported in ChEMBL document CHEMBL3217653, “Design and synthesis of -amino alcohol based -lactamisatin chimeras and preliminary analysis of in vitro activity against the protozoal pathogen Trichomonas vaginalis” (Medchemcomm, 2013).

What was measured:
[1] = system: Trichomonas vaginalis; experiment: Antimicrobial activity against Trichomonas vaginalis G3 assessed as growth inhibition after 24 hrs by hemocytometry; type: functional; conditions: G3, 24 h
[2] = system: Trichomonas vaginalis; experiment: Antimicrobial activity against Trichomonas vaginalis G3 assessed as growth inhibition at 50 uM after 24 hrs by hemocytometry; type: functional; conditions: G3, 24 h, read-out: GI
[3] = Cytotoxicity against human HeLa cells assessed as cell viability at 10 uM after 24 hrs by trypan blue assay relative to bleomycin; type: cell-based; conditions: read-out: Activity

In the case of `O=C1C(=O)N(CC(CO)N[C@@H]2C(=O)N(c3ccc(Cl)cc3)[C@@H]2/C=C/c2ccccc2)c2ccccc21` (some centres undefined), the IC50 [1] is reported as 24.7 µM and the inhibition of growth at 50 µM [2] is reported as 76.2%.

Compound `Cc1ccc2c(c1)C(=O)C(=O)N2CC(CO)N[C@@H]1C(=O)N(c2ccc(Cl)cc2)[C@@H]1/C=C/c1ccccc1` (some centres undefined) has an IC50 [1] of 14.6 µM and an inhibition of growth at 50 µM [2] of 97.6%.

`O=C1C(=O)N(CC(CO)N[C@@H]2C(=O)N(c3ccc(Cl)cc3)[C@@H]2/C=C/c2ccccc2)c2ccc(F)cc21` (some centres undefined) gave an IC50 [1] of 27.4 µM and an inhibition of growth at 50 µM [2] of 77.2%.

Work on `Cc1ccc(N2C(=O)[C@@H](NC(CO)CN3C(=O)C(=O)c4ccccc43)[C@H]2/C=C/c2ccccc2)cc1` (relative stereo) yielded an IC50 [1] of 19.2 µM and an inhibition of growth at 50 µM [2] of 95.3%.

`O=C1C(=O)N(CC(CO)N[C@@H]2C(=O)N(C3CCCCC3)[C@@H]2/C=C/c2ccccc2)c2ccccc21` (relative stereo) showed an IC50 [1] of 18.5 µM and an inhibition of growth at 50 µM [2] of 93.6%.

For `Cc1ccc(N2C(=O)[C@@H](NC(CO)CN3C(=O)C(=O)c4cc(C)ccc43)[C@H]2/C=C/c2ccccc2)cc1` (relative stereo), the inhibition of growth at 50 µM [2] was 56%.

Compound `Cc1ccc2c(c1)C(=O)C(=O)N2CC(CO)N[C@@H]1C(=O)N(C2CCCCC2)[C@@H]1/C=C/c1ccccc1` (relative stereo) has an inhibition of growth at 50 µM [2] of 70.8%.

For `Cc1ccc(N2C(=O)[C@@H](NC(CO)CN3C(=O)C(=O)c4cc(Cl)ccc43)[C@H]2/C=C/c2ccccc2)cc1` (relative stereo), the inhibition of growth at 50 µM [2] was 59.8%.

For `O=C1C(=O)N(CC(CO)N[C@@H]2C(=O)N(c3ccc(Cl)cc3)[C@@H]2/C=C/c2ccccc2)c2ccc(Cl)cc21` (relative stereo), the viability at 24 h, 10 µM [3] was 30%, the IC50 [1] was 9.73 µM and the inhibition of growth at 50 µM [2] was 97.1%.

In the case of `O=C1C(=O)N(CC(CO)N[C@@H]2C(=O)N(C3CCCCC3)[C@@H]2/C=C/c2ccccc2)c2ccc(Cl)cc21` (relative stereo), the inhibition of growth at 50 µM [2] is reported as 61.8%.

Compound `Cc1ccc(N2C(=O)[C@@H](NC(CO)CN3C(=O)C(=O)c4cc(F)ccc43)[C@H]2/C=C/c2ccccc2)cc1` (relative stereo) has an inhibition of growth at 50 µM [2] of 71.9%.

In the case of `O=C1C(=O)N(CC(CO)N[C@@H]2C(=O)N(C3CCCCC3)[C@@H]2/C=C/c2ccccc2)c2ccc(F)cc21` (relative stereo), the inhibition of growth at 50 µM [2] is reported as 64.6%.
